The text below walks through data of patent publication US7456216B2, “Methods for the preparation and formulation of l-carnitine valproate salts” (BioLink Life Sciences, Inc., priority 2007, dated 2008).

A short description of data set [1]: Storage in ambient atmosphere, gross weight monitored over 6 days (hygroscopicity). Type of data set: physicochemical. Particulars: for Conclusion & Observations (hygroscopicity): 6 days in ambient atmosphere; for Net weight, final / Change of net weight, final vs initial: after 6 days in ambient atmosphere; for Net weight, initial: weighed portion before exposure to ambient atmosphere. As for the experimental part: The effects of storage of the L-carnitine valproate salts of Examples 1 and 2 in ambient atmospheres were monitored for 6 days. For comparison, L-carnitine (Sigma Aldrich Chemical Co.), sodium valproate (Sigma Aldrich Chemical Co.), and divalproex sodium were also monitored in the same manner. The experiment was performed by weighing portions of each compound into a tared glass container and periodically monitoring the gross weight of the compound+container over a 6 day period.

Data set [2] has as its system deacetylase. The following applies: dose between 20 and 40 mg/kg; patients with cervical cancer; cited from earlier work.
The conditions of data set [3]: cited from earlier work.
Data set [4] in a line: Storage in a closed and sealed container (stability, odor). It counts as physicochemical. Particulars: for Odor detected during storage: trimethylamine odor indicates degradation. The source says: L-Carnitine magnesium salts of the present invention are stable when stored in a closed and sealed container. […] Both L-carnitine calcium valproate and L-carnitine magnesium valproate are converted to the corresponding hydrates by exposure to water vapor in the atmosphere. Each hydrate has a characteristic melting point.

The conditions of data set [5]: conventional L-carnitine; cited from earlier work.
A short description of data set [6]: Solubility in water or aqueous solutions. It counts as physicochemical.

`CCCC(CCC)C(=O)O` [Divalproex sodium, reference compound]: in data set [1], the “Conclusion & Observations (hygroscopicity)” value (“Conclusion & Observations” for short) is on record as “Mass of the material did not change. Material is not hygroscopic”; the “Net weight, final” value is on record as 100 mg; the “Net weight, initial” value is given as 100 mg.

Consider `CCCC(CCC)C(=O)[O-].[Na+]` [Sodium valproate, reference compound], for which the “Conclusion & Observations” value in data set [1] is “very hygroscopic”.

Turning to “magnesium 2-propylvalerate [magnesium valproate]”, the “Deacetylase activity in tumor tissues” value in data set [2] was “inhibits deacetylase activity and hyperacetylates histones in tumor tissues”.

As for `CCCC(CCC)C(=O)O` [Valproic acid, 2-propylpentanoic acid], the Solubility in water result in data set [3] is given as “very slightly soluble in water”.

L-carnitine calcium valproate: in data set [1], the “Conclusion & Observations” value is “Appearance and mobility of the material did not change. Material absorbed water”; the “Change of net weight, final vs initial” value was “(+5%)”; the “Net weight, final” value was 202 mg; the “Net weight, initial” value turned out to be 194 mg. Besides, in data set [4], the Stability during storage result was “stable” and the “Odor detected during storage” value was “no odor is detected”.

Regarding `C[N+](C)(C)C[C@H](O)CC(=O)[O-]` [L-Carnitine, L-(−)-Carnitine], in data set [1], the “Conclusion & Observations” value is “Material is hygroscopic”; the “Net weight, final” value is listed as over 227 mg; the “Net weight, initial” value is on record as 208 mg. Further, in data set [5], the “Bioavailability of L-carnitine” value is 15-20 % of the administered dose.

L-carnitine magnesium valproate: in data set [1], the “Conclusion & Observations” value was “Material absorbed water and was converted to a hydrate, which is further”; the “Change of net weight, final vs initial” value is given as “(+15%)”; the “Net weight, final” value is listed as 163 mg; the “Net weight, initial” value was 142 mg. For the same molecule, in data set [6], the “Solubility in water or aqueous solutions” value was “readily dissolved in water or aqueous solutions”. In data set [4], the Stability during storage entry is recorded as “stable” and the “Odor detected during storage” value was “a slight odor of trimethylamine is detected”.
